According to ChEMBL document CHEMBL1201862, “PubChem BioAssay data set” (2004):
The source made the active and inactive calls.

Columns and labels:
Leucine aminopeptidase = molecular target: T1, Leucine aminopeptidase (Plasmodium falciparum 3D7, UniProt Q8IL11); test: P. falciparum M17LAP inhibitors, primary screen, biochemical, fluorogenic H-Leu-NHMec substrate, 1536-well (AID 1619); assay type: functional
T1 sequence (Q8IL11 whole entry): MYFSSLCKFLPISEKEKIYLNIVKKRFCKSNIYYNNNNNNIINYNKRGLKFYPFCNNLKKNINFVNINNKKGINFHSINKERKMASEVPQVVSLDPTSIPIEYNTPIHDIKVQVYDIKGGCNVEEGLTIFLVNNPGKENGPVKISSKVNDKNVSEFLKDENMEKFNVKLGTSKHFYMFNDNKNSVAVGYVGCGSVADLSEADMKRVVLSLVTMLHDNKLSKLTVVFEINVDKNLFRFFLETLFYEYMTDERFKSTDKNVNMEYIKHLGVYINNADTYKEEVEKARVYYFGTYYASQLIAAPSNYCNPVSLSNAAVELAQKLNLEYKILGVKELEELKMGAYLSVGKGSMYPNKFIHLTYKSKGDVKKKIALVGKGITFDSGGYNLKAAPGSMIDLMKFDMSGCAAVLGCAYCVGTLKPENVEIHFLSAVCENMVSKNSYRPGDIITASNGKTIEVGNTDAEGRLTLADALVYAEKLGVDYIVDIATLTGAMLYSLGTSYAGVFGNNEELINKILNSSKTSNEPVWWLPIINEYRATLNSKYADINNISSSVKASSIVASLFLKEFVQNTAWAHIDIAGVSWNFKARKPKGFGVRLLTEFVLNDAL

fMet-Leu-Phe receptor = molecular target: T2, fMet-Leu-Phe receptor (Homo sapiens, UniProt P21462); test: formyl peptide receptor binders – dose response (AID 519); assay type: functional
T2 sequence (P21462 whole entry): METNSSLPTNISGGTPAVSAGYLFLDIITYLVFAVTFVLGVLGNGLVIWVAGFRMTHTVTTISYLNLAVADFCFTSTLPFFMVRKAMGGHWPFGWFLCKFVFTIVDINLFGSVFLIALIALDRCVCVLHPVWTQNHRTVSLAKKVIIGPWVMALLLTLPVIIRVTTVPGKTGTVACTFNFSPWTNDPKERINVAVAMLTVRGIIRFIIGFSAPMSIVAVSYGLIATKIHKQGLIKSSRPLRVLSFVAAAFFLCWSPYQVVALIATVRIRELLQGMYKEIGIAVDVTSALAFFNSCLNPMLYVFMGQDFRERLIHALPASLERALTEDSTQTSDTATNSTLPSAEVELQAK

[1] = growth inhibition of yeast DHODH-expressing 3D7 parasites – SYBR Green, dry powder samples, dose response (AID 1159570); assay type: functional, cell-based;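 note: parasite growth measured after 72 hours of compound exposure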
[2] = P. falciparum Dd2 growth inhibitors, dose response, SYBR Green, cherry-picked samples (AID 1159567); assay type: functional, cell-based
[3] = Dd2 malaria parasite growth inhibition potency – SYBR Green, dry powder samples, dose response (AID 1159566); assay type: functional, cell-based;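 note: potency for growth inhibition with lower SYBR green DNA signal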
[4] = growth inhibition of PfATP4-mutant resistant parasites – NITD609-resistant line, SYBR Green, dry powder, dose response (AID 1159571); assay type: functional, cell-based;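 note: parasites synchronized at ring stage by sorbitol before testing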
[5] = cytotoxicity in MITF-independent A375 cells – cell-based, CellTiter-Glo luminescence, dry powder, set 4, counter-screen for MITF inhibitor project, dose response (AID 624364); assay type: functional; details: A-375;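 note: A375 melanoma cells are MITF independent so this is a counter screen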
[6] = viability loss in MITF-independent A375 cells – cell-based, CellTiter-Glo luminescence, dry powder, set 2, counter-screen for MITF inhibitor project, dose response (AID 624489); assay type: functional; details: A-375;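 note: actives are compounds lowering A375 viability meaning general cytotoxicity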
[7] = molecular target: T3, Short transient receptor potential channel 4 (Mus musculus, UniProt Q9QUQ5); test: calcium entry via TRPC4 opening agents – cell-based, HEK293 TRPC4/mu-opioid, Fluo-4 calcium, dose response (AID 434937); assay type: functional
T3 sequence (Q9QUQ5 whole entry): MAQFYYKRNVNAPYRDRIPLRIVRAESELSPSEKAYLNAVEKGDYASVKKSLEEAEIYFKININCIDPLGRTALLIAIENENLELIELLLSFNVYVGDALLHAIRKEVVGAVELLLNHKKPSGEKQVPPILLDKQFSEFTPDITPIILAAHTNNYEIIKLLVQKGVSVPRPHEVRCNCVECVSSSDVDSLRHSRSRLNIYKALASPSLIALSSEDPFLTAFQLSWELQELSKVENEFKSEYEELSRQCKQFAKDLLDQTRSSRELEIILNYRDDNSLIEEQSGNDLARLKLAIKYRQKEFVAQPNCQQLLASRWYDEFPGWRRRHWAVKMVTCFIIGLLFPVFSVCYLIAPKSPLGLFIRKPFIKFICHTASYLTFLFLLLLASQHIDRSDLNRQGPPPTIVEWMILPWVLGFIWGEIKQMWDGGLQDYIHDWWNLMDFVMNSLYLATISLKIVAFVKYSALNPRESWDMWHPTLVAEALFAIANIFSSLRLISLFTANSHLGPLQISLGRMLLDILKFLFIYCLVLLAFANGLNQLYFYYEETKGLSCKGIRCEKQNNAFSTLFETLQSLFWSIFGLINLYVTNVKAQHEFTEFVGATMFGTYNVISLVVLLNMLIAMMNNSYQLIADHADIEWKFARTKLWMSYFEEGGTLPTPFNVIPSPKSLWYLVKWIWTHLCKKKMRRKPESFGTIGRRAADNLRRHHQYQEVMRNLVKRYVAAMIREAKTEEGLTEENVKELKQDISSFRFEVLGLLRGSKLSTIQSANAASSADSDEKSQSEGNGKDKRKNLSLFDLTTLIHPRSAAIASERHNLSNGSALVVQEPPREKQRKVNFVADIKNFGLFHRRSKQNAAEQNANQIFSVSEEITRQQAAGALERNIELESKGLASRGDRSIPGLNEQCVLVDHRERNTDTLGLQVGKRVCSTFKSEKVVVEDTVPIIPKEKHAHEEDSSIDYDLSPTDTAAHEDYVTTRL

[8] = HGIII-sPLA2 enzyme inhibition potency – biochemical, QFRET, IC50, dose response (AID 743457);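 note: green fluorescence rise as the enzyme cleaves BODIPY PC-A2 in liposomes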
Nonstructural protein 1 = Nonstructural protein 1 (Influenza A virus, UniProt Q194T2); assay type: functional, Influenza A virus (A/California/07/2009(H1N1))
Chain of Nonstructural protein 1 (Q194T2 whole entry, the tested form may be a part): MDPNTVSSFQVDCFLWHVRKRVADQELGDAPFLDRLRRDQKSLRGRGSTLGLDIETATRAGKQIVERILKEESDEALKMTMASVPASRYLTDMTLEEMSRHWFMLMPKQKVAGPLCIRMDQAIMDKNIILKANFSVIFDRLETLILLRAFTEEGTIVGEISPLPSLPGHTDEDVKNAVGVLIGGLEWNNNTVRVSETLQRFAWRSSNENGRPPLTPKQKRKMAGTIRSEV

[9] = molecular target: T4, Oxysterols receptor LXR-beta (Homo sapiens, UniProt P55055); assay type: functional, cell-based;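 note: agonist activity at LXR measured by a cell-based luminescence readout across a dose range, run as a counterscreen for daf-12 agonists; HEK293 cells with Gal4-LXR fusion and GAL4-driven luciferase reporter; potency for activation of Gal4-LXR reporter so compounds are agonists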
T4 sequence (P55055 whole entry): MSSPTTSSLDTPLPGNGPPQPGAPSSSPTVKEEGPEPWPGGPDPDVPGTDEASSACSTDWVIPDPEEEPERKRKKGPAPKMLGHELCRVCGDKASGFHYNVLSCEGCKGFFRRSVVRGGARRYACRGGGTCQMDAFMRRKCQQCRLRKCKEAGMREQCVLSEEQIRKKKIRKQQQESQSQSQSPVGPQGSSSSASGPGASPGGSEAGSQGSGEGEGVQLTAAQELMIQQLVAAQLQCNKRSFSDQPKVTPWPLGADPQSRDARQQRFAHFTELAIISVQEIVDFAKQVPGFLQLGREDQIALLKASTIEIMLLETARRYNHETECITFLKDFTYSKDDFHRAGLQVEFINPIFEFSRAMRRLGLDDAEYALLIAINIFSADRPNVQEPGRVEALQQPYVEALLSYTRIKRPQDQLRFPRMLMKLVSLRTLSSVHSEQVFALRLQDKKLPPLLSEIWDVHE

Cytochrome P450 2C9 = Cytochrome P450 2C9 (Homo sapiens, UniProt P11712); details: Potency
Chain of Cytochrome P450 2C9 (P11712 whole entry): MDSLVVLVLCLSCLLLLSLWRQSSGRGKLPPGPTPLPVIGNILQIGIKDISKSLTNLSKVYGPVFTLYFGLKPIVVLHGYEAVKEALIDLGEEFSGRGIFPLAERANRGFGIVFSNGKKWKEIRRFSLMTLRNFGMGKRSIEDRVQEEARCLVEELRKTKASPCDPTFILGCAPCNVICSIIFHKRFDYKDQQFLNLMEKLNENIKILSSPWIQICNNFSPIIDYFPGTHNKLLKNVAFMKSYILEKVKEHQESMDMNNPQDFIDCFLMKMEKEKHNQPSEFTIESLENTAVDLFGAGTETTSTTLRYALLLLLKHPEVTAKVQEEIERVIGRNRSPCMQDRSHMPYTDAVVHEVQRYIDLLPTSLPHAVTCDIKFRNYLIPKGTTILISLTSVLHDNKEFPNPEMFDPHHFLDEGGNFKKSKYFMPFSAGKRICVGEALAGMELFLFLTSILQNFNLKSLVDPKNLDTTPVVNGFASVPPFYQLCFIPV

[10] = viability of uninfected HEp-2 cells – cell-based, HTS, cytotoxicity control for RSV inhibitor project, dose response (AID 2410); assay type: functional; details: human respiratory syncytial virus
[11] = Dd2 parasite growth inhibition in erythrocytes – SYBR Green, dry powder samples, set 9, dose response (AID 1159568); assay type: functional, cell-based
[12] = molecular target: T5, Rac GTPase-activating protein 1 (Homo sapiens, UniProt Q9H0H5); test: blockers of MgcRacGAP-driven Rac1 GTP hydrolysis – biochemical, ADP Hunter fluorescence, primary and confirmatory, confirmation (AID 624330); assay type: functional
T5 sequence (Q9H0H5 whole entry): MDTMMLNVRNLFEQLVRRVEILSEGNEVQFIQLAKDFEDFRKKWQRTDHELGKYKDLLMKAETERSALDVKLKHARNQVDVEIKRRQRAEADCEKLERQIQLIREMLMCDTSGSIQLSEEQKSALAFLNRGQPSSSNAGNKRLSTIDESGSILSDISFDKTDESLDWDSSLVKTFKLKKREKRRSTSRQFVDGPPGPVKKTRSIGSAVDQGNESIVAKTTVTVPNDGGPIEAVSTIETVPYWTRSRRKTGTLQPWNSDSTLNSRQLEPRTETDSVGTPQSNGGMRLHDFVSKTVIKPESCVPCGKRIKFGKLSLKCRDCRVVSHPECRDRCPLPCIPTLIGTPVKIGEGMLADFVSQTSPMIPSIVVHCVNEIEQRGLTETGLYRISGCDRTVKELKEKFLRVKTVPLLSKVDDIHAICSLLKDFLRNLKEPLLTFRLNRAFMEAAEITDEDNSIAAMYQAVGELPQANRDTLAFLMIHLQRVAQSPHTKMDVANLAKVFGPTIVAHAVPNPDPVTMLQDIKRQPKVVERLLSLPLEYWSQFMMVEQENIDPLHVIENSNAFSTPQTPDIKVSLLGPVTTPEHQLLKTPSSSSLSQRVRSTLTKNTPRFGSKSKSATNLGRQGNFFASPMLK

Protein Tat = molecular target: T6, Protein Tat (Human immunodeficiency virus type 1 group M subtype B (isolate HXB2)(HIV-1), UniProt P04608); assay type: functional;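 note: tat binding to TAR RNA read out by fluorescence polarization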
T6 sequence (P04608 whole entry): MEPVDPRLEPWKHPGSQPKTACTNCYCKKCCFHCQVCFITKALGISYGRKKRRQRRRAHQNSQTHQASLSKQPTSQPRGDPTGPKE

[13] = viability loss in THP-1 monocytes – THP-1 cells, cytotoxicity control for Vif-APOBEC3G degradation inhibitor project, dose response (AID 1117359); assay type: functional; details: THP-1
[14] = molecular target: Luciferin 4-monooxygenase (Photinus pyralis, UniProt P08659); test: inhibition of purified Photinus pyralis luciferase – biochemical, luminescence, dose response (AID 1891)
Chain of Luciferin 4-monooxygenase (P08659 whole entry): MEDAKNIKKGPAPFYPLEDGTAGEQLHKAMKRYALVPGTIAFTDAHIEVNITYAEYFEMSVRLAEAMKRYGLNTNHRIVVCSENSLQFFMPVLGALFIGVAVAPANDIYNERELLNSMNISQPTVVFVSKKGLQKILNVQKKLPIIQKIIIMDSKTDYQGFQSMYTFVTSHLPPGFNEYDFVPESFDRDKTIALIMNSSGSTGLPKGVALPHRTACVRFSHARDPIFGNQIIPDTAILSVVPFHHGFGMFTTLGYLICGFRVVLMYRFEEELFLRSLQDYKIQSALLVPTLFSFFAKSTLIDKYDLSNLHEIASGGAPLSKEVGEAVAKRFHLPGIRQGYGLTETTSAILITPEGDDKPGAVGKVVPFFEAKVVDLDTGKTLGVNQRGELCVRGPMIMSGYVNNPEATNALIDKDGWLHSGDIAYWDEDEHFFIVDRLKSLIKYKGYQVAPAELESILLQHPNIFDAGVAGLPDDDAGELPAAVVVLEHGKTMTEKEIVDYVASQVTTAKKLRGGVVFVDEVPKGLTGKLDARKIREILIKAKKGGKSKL

[15] = Luminescence Cell-Based Dose Confirmation HTS to Identify Inhibitors of Platelet Dense Granule Release. [Related pubchem assays: 1663 (Primary HTS), 1678 (Summary of Project)]; assay type: functional
[16] = toxicity to human hepatoma HepG2 cells – cell-based, cherry-picked samples, cytotoxicity control, dose response (AID 1159577); assay type: functional

## COc1ccc(CNC(=O)Cc2c(C(=O)O)[nH]c3ccccc23)cc1
Leucine aminopeptidase
  IC50: 35.6 µM (active)

## Cc1ccc(C2C(C(=O)c3cnn(-c4ccccc4)c3C)=C(O)C(=O)N2CCN2CCOCC2)o1 (centres undefined)
fMet-Leu-Phe receptor
  Ki: 23.2 µM (inactive)

## N#C[C@@H]1[C@H](c2ccccc2C2=CCCCC2)[C@@H](CO)N1C(=O)c1cccc(F)c1
[1]
  AC50: 2.12 µM (active)
[2]
  AC50: 2.74 µM (active)
[3]
  AC50: 1.93 µM (active)
[4]
  AC50: 7.9 µM (active)

## O=C1C(NS(=O)(=O)c2ccc(Br)cc2)=C(c2ccccc2)C(=O)c2ccccc21
[5]
  AC50: > 70 µM (inactive)
[6]
  AC50: > 70 µM (inactive)

## O=C(NC1=C(N2CCSCC2)C(=O)c2ccccc2C1=O)c1ccc(Br)cc1
[5]
  AC50: > 70 µM (inactive)
[6]
  AC50: 49.9 µM (active)

## COc1ccc(C(=O)NC(=S)NNC(=O)c2c(-c3ccccc3)noc2C)cc1
[7]
  EC50: 3.76 µM (active)
[8]
  IC50: 24.2 µM (inactive)

## c1ccc(CSc2ccc(-c3ccccn3)nn2)nc1
Nonstructural protein 1
  IC50: 4.94 µM (active)
[9]
  EC50: > 67.5 µM (inactive)

## CCCCC#CC1C=CC(Oc2cc(OC)c(OC)c(OC)c2)C(COC(=O)OCC)O1 (centres undefined)
Cytochrome P450 2C9
  AC50: 6.31 µM (inconclusive)

## O=C1CCCN1c1ccc(C(=O)N(Cc2nnc(-c3ccccc3Cl)o2)C2CC2)cc1
[10]
  CC50: 48.5 µM (active)
cells
  IC50: 18.8 µM (active)

## Cc1cccc(N/N=C(\C#N)S(=O)(=O)C(C)(C)C)c1
Leucine aminopeptidase
  IC50: 19 µM (active)

## Clc1ccccc1Nc1nc2ccccc2o1
[9]
  EC50: > 67.6 µM (inactive)

## COc1ccc(S(=O)(=O)Nc2ccc3c(c2)C(=O)N([C@H](C)CO)C[C@@H](C)[C@@H](CN(C)S(=O)(=O)c2ccc(Cl)cc2)OCCCC[C@@H](C)O3)cc1
[11]
  AC50: 0.742 µM (active)

## CC(=O)OCCNc1cc(N2CCN(C)CC2)c2noc3c2c1C(=O)c1ccccc1-3
Nonstructural protein 1
  IC50: 24.1 µM (active)
[12]
  IC50: 117 µM (active)
fMet-Leu-Phe receptor
  Ki: > 66.7 µM (inactive)

## C=CCNC1=C(Nc2ccccc2)C(=O)c2ccccc2C1=O
[5]
  AC50: > 70 µM (inactive)
[6]
  AC50: > 70 µM (inactive)

## CC(C)C[C@@H](CC(=O)N[C@@H](CCCN)CC(=O)N[C@@H]1CCCC[C@H]1C(=O)N[C@H](CC(=O)N[C@@H](CCC(=O)O)CC(=O)O)Cc1c[nH]c2ccccc12)NC(=O)[C@@H]1CCCC[C@H]1N
Cytochrome P450 2C9
  AC50: 39.8 µM (inconclusive)

## c1ccc(CCn2c3ccccc3c3nnc(SCc4ccc5nonc5c4)nc32)cc1
[10]
  CC50: 22.3 µM (active)
cells
  IC50: 28.3 µM (active)

## C[C@@H]1CN([C@@H](C)CO)C(=O)c2cc(NC(=O)Nc3ccccc3)ccc2O[C@@H](C)CCCCO[C@H]1CN(C)C(=O)Nc1ccc(C(F)(F)F)cc1
Protein Tat
  IC50: > 100 µM (active)
[13]
  CC50: 36.3 µM (active)

## O=C(Cn1cnc2c(cnn2-c2ccc(F)cc2)c1=O)OCc1ccccc1
[14]
  EC50: > 112 µM (not active)
[15]
  EC50: > 112 µM (not active)
fMet-Leu-Phe receptor
  Ki: > 66.7 µM (inactive)

## C/C=C/c1ccc([C@H]2[C@@H](CO)N(CC3CCCCC3)[C@H]2CNC(C)C)cc1
[11]
  AC50: 5.66 µM (active)

## O=S(=O)(Nc1cccc(-c2ccc(N3CCOCC3)nn2)c1)c1cc(Cl)ccc1Cl
[10]
  CC50: 23.5 µM (active)
cells
  IC50: 8.9 µM (active)

## CSc1ncnc2c1ncn2CC(=O)[C@H]1CC[C@H]2[C@H]3CCC4=CC(=O)CC[C@@]4(C)[C@@H]3CC[C@@]12C
Cytochrome P450 2C9
  AC50: 3.16 µM (inconclusive)

## C[C@@H]1CN([C@@H](C)CO)C(=O)c2c(c3ccccc3n2C)-c2ccccc2CO[C@@H]1CN(C)Cc1ccccc1C(F)(F)F
[2]
  AC50: 1.47 µM (active)
[16]
  AC50: 8.34 µM (active)
